“Also recorded” adds a separate entry of the source.
Columns and labels:
[1] = test system: HCC1937; experiment: Western blotting and RT-PCR expression, HCC1937; type: cell-based, human; details: 650 nM; 24, 48 and 72 h
Description: (§1) Logarithmic transformation of the variable was applied before the ANOVA test if required. As shown in FIG. 16A-C, Western blots are representative of three independent experiments where each bar and vertical line represents the mean±SEM, respectively (n=3). As shown in FIG. 15D-15G, C-MYC protein and mRNA levels were unchanged by Compound (1-1) treatment in all the three cell lines.
(§2) CDKN1A (p21) mRNA levels were increased in all three cell models (p<0.001). […] Significant differences in the mRNA levels were determined by one-way ANOVA test (p<0.01) followed by SNK a posteriori test (*p<0.05, **p<0.01, […]). Logarithmic transformation of the variable was applied before the ANOVA test if required. Each bar and vertical line represents the mean±SEM, respectively (n=3). Western blots are representative of 3 independent experiments.

[2] = test system: HCC1937; experiment: Cell cycle after drug washout, HCC1937; type: cell-based, human; details: 650 nM for 72 h, then 48 h of drug washout
Protocol: (§3) Cells were staining with propidium iodide then analyzed using a FACScan flow cytometer. […] After 72 h of treatment, control and treated cells were washed with PBS and re-incubated with compound (1-1) free medium (drug washout). As show in FIG. 14A-14C, significant differences in the percentage of compound (1-1)-treated cells in the G1, S and G2/M phases with respect to untreated controls were determined by a one-way ANOVA test (p<0.001) followed by an SNK a posteriori test. After washout, significant differences in the percentage of cells in a given cell cycle phase between control and pre-treated cells were determined with the Student t-test for independent samples with equal or different variance, as appropriate. * , × and # means significant difference between treated cells respect and controls in G1 phase (*p<0.05, **p<0.01), G2/M phase (×p<0.05, ××p<0.01) and S phase p<0.05, ## p<0.01), respectively. Each bar and vertical line represents the mean±SEM, respectively (n≥3).

[3] = test system: MDA-MB-231; experiment: MTT proliferation assay, MDA-MB-231; details: Homo sapiens
[4] = test system: MDA-MB-231; experiment: Cell cycle after drug washout, MDA-MB-231; type: cell-based, human; details: 75 nM for 72 h, then 48 h of drug washout
Protocol: as §3

[5] = test system: HCC1937; experiment: Cell counting proliferation, HCC1937; type: cell-based; details: Homo sapiens
[6] = test system: MDA-MB-231 nude mice-derived xenografts; experiment: MDA-MB-231 xenografts in nude mice; type: in vivo
Protocol: In vivo assays were performed in 8-week-old female MDA-MB-231 nude mice-derived xenografts. 10×10^6 cells were injected, when tumor volume reached 100 mm^3, mice were randomized to 4 groups (n=9): 1) vehicle; 2) 50 mg/kg Compound (1-1) (BID, po); 3) 2 mg/kg of everolimus (3 time a week, ip); 4) combination Compound (1-1) and everolimus; 4 weeks treatment.
Symbols with • indicate significant differences between treatment vs. vehicle-treated mice (p<0.05). * indicates a significant difference in the tumor mass between the combination treated animals and the two single agent groups (*p<0.05, **p<0.01 and ***p<0.001). Results represent the mean±SEM (during the treatment period, n=9). Variation of animal body weight during treatment is illustrated in FIG. 18B. […] The T/C ratio was 39% after 10 days of combination treatment, with an optimal value of 21% on day 23. Compound (1-1) can be used for the treatment of TNBC, either alone or in combination with mTOR inhibitors.

[7] = test system: MDA-MB-231; experiment: Cell counting proliferation, MDA-MB-231; type: cell-based; details: Homo sapiens
[8] = test system: MDA-MB-468; experiment: Western blotting and RT-PCR expression, MDA-MB-468; type: cell-based, human; details: 24, 48 and 72 h
Description: as §1, §2

[9] = test system: MDA-MB-468; experiment: Cell cycle after drug washout, MDA-MB-468; type: cell-based, human; details: 650 nM for 72 h, then drug washout
Protocol: as §3

[10] = test system: HCC1937; experiment: MTT proliferation assay, HCC1937; details: Homo sapiens
[11] = Pharmacokinetics and oral bioavailability in dogs; type: in vivo; details: male, beagle, plasma; dog; 1 mg/kg IV; solution in water:ethanol:PEG400 (60:20:20)
Protocol: Blood samples were collected from the jugular vein of each animal at 0 (pre-dose), 5, 15, and 30 minutes and 1, 2, 4, 8, 12, and 24 hours following intravenous administration and at 0 (pre-dose), 15 and 30 minutes and 1, 2, 4, 8, 12, and 24 hours following oral gavage administration. The amount of compound (1-1) present in each sample was detected using a qualified LC-MS/MS method with a lower limit of quantification of 0.5 ng/mL. The area under the plasma concentration-time curve (AUC) was determined by use of the linear trapezoidal rule up to the last measurable concentration without extrapolation of the terminal elimination phase to infinity. The elimination half-life (t1/2) was calculated by least-squares regression analysis of the terminal linear part of the log concentration-ime curve. The maximum plasma concentration (Cmax) and the time to Cmax (tmax) were derived directly from the plasma concentration data. The oral bioavailability (F) was calculated by dividing the dose normalized AUC after oral administration by the dose normalized AUC after intravenous administration and reported as percentages (%).

[12] = MDA-MB-231, 48 h, 48 h exposure, hypoxia (0.1% O2)
[13] = MDA-MB-231, 48 h, 48 h exposure, normoxia
[14] = MDA-MB-231, 72 h, 72 h exposure, hypoxia (0.1% O2)
[15] = MDA-MB-231, 72 h, 72 h exposure, normoxia
[16] = HCC1937, 48 h, 48 h exposure, hypoxia (0.1% O2)
[17] = HCC1937, 48 h, 48 h exposure, normoxia
[18] = HCC1937, 72 h, 72 h exposure, hypoxia (0.1% O2)
[19] = HCC1937, 72 h, 72 h exposure, normoxia
[20] = Compound (1-1) 50 mg/kg BID po, everolimus 2 mg/kg 3 time a week ip, 4 weeks treatment
[21] = 650 nM, listed as compound (1-1), dihydrate

GI50 [3, 12]: 63.3 nM
GI50 [3, 13]: 132 nM
GI50 [3, 14]: 48.2 nM
GI50 [3, 15]: 81.7 nM
GI50 [5, 16]: > 6000 nM
GI50 [5, 17]: > 6000 nM
GI50 [5, 18]: 247 nM
GI50 [5, 19]: 262 nM
GI50 [7, 12]: 144 nM
GI50 [7, 13]: 92.2 nM
GI50 [7, 14]: 49.1 nM
GI50 [7, 15]: 55.9 nM
GI50 [10, 16]: 23.1 nM
GI50 [10, 17]: 110 nM
GI50 [10, 18]: 29 nM
GI50 ([10]; HCC1937, 72 h, 72 h exposure, normoxia, * = apparent value): 81.9 nM
Cmax [11]: 0.769 ng/mL
Structure (SMILES): Cc1sc2c(c1C)C(c1ccc(Cl)cc1)=N[C@@H](CC(=O)Nc1ccc(O)cc1)c1nnc(C)n1-2 [Compound (1-1), 2-[(6S)-4-(4-chlorophenyl)-2,3,9-trimethyl-6H-thienol[3,2-f]-[1,2,4]triazolo[4,3-a][1,4]diazepin-6-yl]-N-(4-hydroxyphenyl)acetamide dihydrate]
mRNA levels of BRD3 [1]: reduced
cell cycle pattern after drug washout [2]: recovered the control cell cycle pattern
Emax [3, 12]: 68%
Emax [3, 13]: 71%
Emax [3, 14]: 83%
Emax [3, 15]: 83%
cell cycle pattern after drug washout [4]: recovered the control cell cycle pattern
Emax [5, 16]: 27%
Emax ([5]; HCC1937, 48 h, 48 h exposure, normoxia, percent with respect to control untreated cells): 31%
Emax [5, 18]: 54%
Emax [5, 19]: 70%
body weight ([6]; 50 mg/kg BID po, after 19 days of treatment): without body weight loss
best T/C % [6, 20]: 40.7%
tumor mass with respect to vehicle-treated mice [6, 20]: significant (p<0.05) reduction
Emax [7, 12]: 67%
Emax [7, 13]: 71%
Emax [7, 14]: 82%
Emax [7, 15]: 89%
BRD2 levels ([8]; 650 nM): increased
mRNA levels of BRD3 ([8]; 650 nM): reduced
mRNA levels of BRD4 ([8]; 650 nM): downregulated
c-Myc expression (mRNA and protein) ([8]; 650 nM, dihydrate): down-regulated
c-Myc expression (mRNA and protein) [8, 21]: downregulated; also recorded: downregulation
mRNA levels of n-Myc [8, 21]: downregulated; also recorded: downregulation
expression levels of c-MYC and n-MYC ([8]; RT-PCR, 500 nM): marked (p<0.05) reduction
cell cycle pattern after drug washout [9]: substantial (p<0.05) accumulation of cells in G2/M phase
Emax [10, 16]: 60%
Emax [10, 17]: 41%
Emax [10, 18]: 74%
Emax [10, 19]: 51%
